In patent publication US20090018121A1, “PREVENTIVE AND/OR THERAPEUTIC AGENT FOR RHEUMATOID ARTHRITIS” (Kowa Co., Ltd., priority 2005, published 2009):

Tested on: rat collagen-induced arthritis model
Experiment: Edema suppressing effect in both hindlimbs in rat collagen-induced arthritis model (Edema Index)
Assay type: in vivo, rat (female Lewis, LEW/Crj)
Design: Edema Index: unit not given here
Settings: sole administration; for Relative index: Edema Index relative to control group; for Relative index / Decrease rate (%) / Edema Index: oral; for Decrease rate (%): of Edema Index vs control group; for Edema Index: mean ± SE
Experimental: Female Lewis rats (LEW/Crj) (obtained from Charles River Laboratories Japan, Inc.) were used as test animals.
This Pre value was used as an index to divide the rats into groups by one-parameter-based block randomization, so that the values in the respective groups averaged out.
The collagen emulsion for sensitization used to induce arthritis in rats was prepared by homogenizing 0.3% Type II collagen liquid (manufactured by Collagen Research Center), Adjuvant Peptide (manufactured by Peptide Institute, Inc.) and Adjuvant Incomplete Freund (manufactured by DIFCO), using a Handy Micro Homogenizer (manufactured by Microtec Nition) under ice-cooling. The collagen emulsion thus prepared was intracutaneously administered at 10 sites in the back of each rat at a dose of 0.1 mL/site, to perform initial sensitization of the rat. Seven days after initial sensitization, 0.12 mL of the same collagen emulsion was intracutaneously administered to the tail head of each rat, to perform booster sensitization.
Drug administration was conducted from the day after the initial sensitization through 18 days thereafter. Drug A and Drugs B-1, B-2 and B-4 were all orally administered two times a day, in the morning (9:00 to 11:00 AM) and in the evening (15:30 to 17:30 PM). Drug B-3 was orally administered once a day, around noon (11:30 AM to 13:30 PM).
14 Days and 18 days after the initial sensitization, respectively, the hindlimbs volume was measured again for each rat, and the difference between each of the values and the Pre value was determined to calculate the edema volume for both hindlimbs. The sum of the edema volumes for both hindlimbs measured 14 days and 18 days after the initial sensitization was calculated as the Edema Index, and this was taken as an index for the effect of the drug.
The Edema Index is represented by an average value±standard error for 8 rats in each group. Also, the decrease rate is represented by the formula: ((X−Y)/X)×100 (wherein X: average value of Edema Index for the control group, Y: average value of Edema Index for each group).

SMILES	Relative index (10 mg/kg, two times a day)	Decrease rate (%) (10 mg/kg, two times a day)	Edema Index (10 mg/kg, two times a day)	Relative index (0.2 mg/kg, once a day)	Decrease rate (%) (0.2 mg/kg, once a day)	Edema Index (0.2 mg/kg, once a day)	Relative index (1 mg/kg, two times a day)	Decrease rate (%) (1 mg/kg, two times a day)	Edema Index (1 mg/kg, two times a day)	Relative index (3 mg/kg, two times a day)	Decrease rate (%) (3 mg/kg, two times a day)	Decrease rate of Edema Index vs control group (%) (3 mg/kg)	Edema Index (3 mg/kg, two times a day, through 18 days after initial sensitization, sum of edema volumes of both hindlimbs at days 14 and 18)	Decrease rate of Edema Index vs control group (%) (10 mg/kg)
CSc1ccc(-c2nn(Cc3ccccc3)c(=O)cc2-c2ccc(Cl)cc2)cc1 [Drug A, 2-benzyl-5-(4-chlorophenyl)-6-[4-(methylthio)phenyl]-2H-pyridazin-3-one]	0.81	19%	2.93 ± 0.22											
Cc1cnc(NC(=O)C2=C(O)c3ccccc3S(=O)(=O)N2C)s1 [Drug B-3, meloxicam]				0.58	42%	2.04 ± 0.10								
O=C(O)Cc1ccccc1Nc1c(Cl)cccc1Cl [Drug B-1, diclofenac sodium]							0.33	67%	1.20 ± 0.26					
Cc1ccc(-c2cc(C(F)(F)F)nn2-c2ccc(S(N)(=O)=O)cc2)cc1 [Drug B-4, celecoxib]	0.46	54%	1.86 ± 0.19				0.70	30%	3.41 ± 0.16	0.61	39%	39%	2.46 ± 0.22	54%
